Source: US9585380B2, “SSAT mRNA translation repression and activation” (TEMPLE UNIVERSITY—Of The Commonwealth System of Higher …, priority 2011, dated 2017)
Where a name gives a salt, the structure may show the parent alone.

Assays:
SSAT translation [1] = experiment: Drug screening with mutant 6 SSAT-luciferase reporter construct in transfected HEK 293T cells; format: cell-based, human; details: for inhibition at 10 µM / activation at 10 µM: Homo sapiens; for inhibition at 10 µM: 10 μM test compound, HEK 293T cells transfected with mutant 6 construct, luciferase signal twelve hours after treatment; for activation at 10 µM: 12 h; for activation at 10 µM / % Increase in SSAT Translation: procedure of Example 6 (10 μM, mutant 6 construct, HEK 293T), increase over basal SSAT translation
Method: The mutant 6 chimeric construct of Example 4 (A424C; A426C; FIG. 18G) cloned into pLEX MCS plasmid was utilized in drug screening as follows. HEK 293T cells (ATCC) were grown in DMEM supplemented with 10% fetal bovine serum and antibiotics. The HEK 293T cells were transfected with the mutant 6/pLEX MCS plasmid using HTS-Jetpei transfection reagent (Polyplus Transfection, Illkirch, France). Transfected HEK293T cells were incubated overnight at 37° C. After 24 hours, cells transfected cells in 96-well plates used for screening were treated with 10 μM of test compound from a compound library in DMSO. Untreated cells were used as the negative control, and cells treated with 10 μM DENSPM comprised a positive control. The luciferase signaling in each plate was independently analyzed using a Glomax Luminometer (Promega Corp.) by comparing the signals against the controls twelve hours after treatment.
The procedure of Example 6 was followed, screening for compounds that increase SSAT translation. The agents listed in Table 11 were identified as increasing SSAT translation by at least 35% over basal SSAT translation.

SSAT translation [2] = experiment: Reporter system: 5′ UTR lacking uORFs + SSAT coding sequence-luciferase chimeric construct in HEK293T cells; format: cell-based, human; details: wild-type SSAT-luciferase construct, luciferase 16 hours after addition, compared to untreated
Method: A chimeric construct (FIG. 15A) comprising a fragment of the 5′ UTR of SSAT lacking the uORF's (see FIG. 7), the SSAT coding sequence (see FIG. 8B), and the luciferase coding sequence was prepared. The SSAT coding sequence is linked in-frame to the luciferase coding sequence. The construct was prepared using appropriate primers and template nucleic acid, and conventional PCR methods. The construct was cloned into pLEX-MCS. To evaluate the effect of small molecules on translation of the chimeric construct, the chimeric construct was transiently transfected into HEK293T cells. The small molecule to be tested was added 24 hours after transfection of the vector. Luciferase activity was evaluated 16 hours after the addition of the small molecule using the ONE-Glo™ Luciferase Assay System (Promega, Madison, Wis.). The luminescence intensity was determined using a GloMax® luminometer (Promega).
In view of the discovery of the contribution of uORF's on translational repression of SSAT mRNA, a reporter system was developed to detect pharmacophores that can modulate SSAT translation. The reporter system is a chimeric construct comprising a 5′ UTR lacking the uORF's and the SSAT coding sequence linked in-frame to the luciferase coding sequence. (FIG. 15A). The 5′ UTR comprises 66 nucleotides of the native 5′UTR immediately upstream of the starting AUG codon.
Release of translational repression of the chimeric construct was tested in the presence of several small molecules. Release of translational repression was assessed by detection of luciferase activity. The small molecules tested were: DENSPM and three uncharacterized polyamine analogs designated polyamine analog 1; polyamine analog 2; and polyamine analog 3. Cisplatin and 5-FU were tested as negative controls.

CC(C)(C)c1ccc(C(O)CCCN2CCC(C(O)(c3ccccc3)c3ccccc3)CC2)cc1 (racemic) [Terfenadine, (RS)-1-(4-tert-butylphenyl)-4-{4-[hydroxy(diphenyl)methyl]piperidin-1-yl}-butan-1-ol]
inhibition at 10 µM (SSAT translation [1]): 100%

CCCCCCCCN[C@H](C)[C@@H](O)c1ccc(SC(C)C)cc1 (relative stereo) [Suloctidil, (R*,S*)-4-((1-methylethyl)thio)-alpha-(1-(octylamino)ethyl)benzene-methanol]
inhibition at 10 µM (SSAT translation [1]): 99.9%

C[C@H]1OC(OC2[C@@H](O)C[C@H](OC3[C@@H](O)CC(O[C@H]4CC[C@@]5(C)[C@H](CC[C@@H]6[C@@H]5C[C@@H](O)[C@]5(C)[C@@H](C7=CC(=O)OC7)CC[C@]65O)C4)O[C@@H]3C)O[C@@H]2C)C[C@H](O)C1O (stereo in doubt) [Digoxin, 4-[(3S,5R,8R,9S,10S,12R,13S,14S)-3-[(2S,4S,5R,6R)-5-[(2S,4S,5R,6R)-5-[(2S,4S,5R,6R)-4,5-dihydroxy-6-methyl-oxan-2-yl]oxy-4-hydroxy-6-methyl-oxan-2-yl]oxy-4-hydroxy-6-methyl-oxan-2-yl]oxy-12,14-dihydroxy-10,13-dimethyl-1,2,3,4,5,6,7,8,9,11,12,15,16,17-tetradecahydrocyclopenta[a]phenanthren-17-yl]-5H-furan-2-one]
inhibition at 10 µM (SSAT translation [1]): 93.9%

Nc1nc(NC2CC2)c2ncn([C@H]3C=C[C@@H](CO)C3)c2n1 [Abacavir Sulfate]
activation at 10 µM (SSAT translation [1]): 36%

CCCCC(CC)CNC(=N)NC(=N)NCCCCCCNC(=N)NC(=N)NCC(CC)CCCC (stereo not drawn) [Alexidine dihydrochloride, 1,1′-Hexamethylene-bis[5-(2-ethylhexyl)biguanide] dihydrochloride]
inhibition at 10 µM (SSAT translation [1]): 99.6%

Cc1c(O)c(=O)n(-c2ccccc2)n1C [Antipyrine, 4-hydroxy]
% Increase in SSAT Translation (SSAT translation [1]): 41%

O=C1CCc2ccc(OCCCCN3CCN(c4cccc(Cl)c4Cl)CC3)cc2N1 [Aripiprazole, 7-{4-[4-(2,3-dichlorophenyl)piperazin-1-yl]butoxy}-3,4-dihydroquinolin-2(1H)-one]
inhibition at 10 µM (SSAT translation [1]): 92.7%

COc1ccc(CCN2CCC(Nc3nc4ccccc4n3Cc3ccc(F)cc3)CC2)cc1 [Astemizole, 1-[(4-fluorophenyl)methyl]-N-[1-[2-(4-methoxyphenyl)ethyl]-4-piperidyl]benzoimidazol-2-amine]
inhibition at 10 µM (SSAT translation [1]): 86.2%

CC=C(C)C(=O)O[C@H]1[C@H](OC(C)=O)[C@@]2(CO)C(CC1(C)C)C1=CCC3[C@@]4(C)CC[C@H](O[C@@H]5O[C@H](C(=O)O)[C@@H](O[C@@H]6O[C@H](CO)[C@@H](O)[C@H](O)[C@H]6O)[C@H](O)[C@H]5O[C@@H]5O[C@H](CO)[C@@H](O)[C@H](O)[C@H]5O)[C@](C)(CO)C4CC[C@@]3(C)[C@]1(C)C[C@H]2O (stereo partly drawn) [Beta-Escin, (3α,5β,14β,16α,21α,22α)-22-acetoxy-16,23,28-trihydroxy-1-{[(2Z)-2-methylbut-2-enoyl]oxy}olean-12-en-3-yl-α-D-gulopyranosyl-(1→2)-[a-L-mannopyranosyl-(1→4)]-β-D-allopyranosiduronic acid]
inhibition at 10 µM (SSAT translation [1]): 88.7%

O=C1C=CC(=O)c2c1ccc1c2ccc2ccccc21 [Chrysene-1,4-quinone, chrysene-1,4-dione]
inhibition at 10 µM (SSAT translation [1]): 97.3%

CC(=O)OCC(=O)[C@@]12N=C(C)O[C@@H]1C[C@H]1[C@@H]3CCC4=CC(=O)C=C[C@]4(C)[C@H]3[C@@H](O)C[C@@]12C [Deflazacort]
activation at 10 µM (SSAT translation [1]): 37%

C[C@]12CC[C@H](O)C[C@H]1CC[C@@H]1[C@@H]2CC[C@]2(C)[C@@H](C3=CC(=O)OC3)CC[C@]12O [Digitoxigenin, 3-β,14-dihydroxy-5-β,14-β-card-20(22)-enolide]
inhibition at 10 µM (SSAT translation [1]): 93.4%

CN(C)CCOC(C)(c1ccccc1)c1ccccn1 (stereo not drawn) [Doxylamine succinate]
activation at 10 µM (SSAT translation [1]): 62%

C[C@]12CC[C@H]3C(=CCc4cc(O)ccc43)[C@@H]1CCC2=O [Equilin]
activation at 10 µM (SSAT translation [1]): 36%

Nc1[nH]c(=O)ncc1F [Flucytosine]
activation at 10 µM (SSAT translation [1]): 35%

O=C1NCN(c2ccccc2)C12CCN(CCCC(c1ccc(F)cc1)c1ccc(F)cc1)CC2 [Fluspirilen, 8-[4,4-Bis(4-fluorphenyl)butyl]-1-phenyl-1,3,8-triazaspiro[4,5] decan-4-on]
inhibition at 10 µM (SSAT translation [1]): 94.7%

CC(=O)O[C@H]1C[C@H](OC2[C@@H](O)C[C@H](O[C@H]3[C@@H](O)C[C@H](O[C@H]4CC[C@@]5(C)[C@H](CC[C@@H]6[C@@H]5C[C@@H](O)[C@]5(C)[C@@H](C7=CC(=O)OC7)CC[C@]65O)C4)O[C@@H]3C)O[C@@H]2C)O[C@H](C)[C@H]1O[C@@H]1O[C@H](CO)[C@@H](O)[C@H](O)[C@H]1O (stereo partly drawn) [Lanatoside C, (3β,5β,12β)-3-{[β-D-glucopyranosyl-(1→4)-3-O-acetyl-2,6-dideoxy-β-D-ribo-hexopyranosyl-(1→4)-2,6-dideoxy-β-D-ribo-hexopyranosyl-(1→4)-2,6-dideoxy-β-D-ribo-hexopyranosyl]oxy}-12,14-dihydroxycard-20(22)-enolide]
inhibition at 10 µM (SSAT translation [1]): 91.8%

O=c1[nH]cc(F)c(=O)[nH]1 [Mutant 5-FU, 5-FU]
Release of translational repression of the chimeric construct (luciferase activity) (SSAT translation [2]): about the same as in the absence of a small molecule

COc1ccc2cc(CCC(C)=O)ccc2c1 [Nabumetone]
activation at 10 µM (SSAT translation [1]): 59%

C=C1C(=O)O[C@H]2[C@H]1CC/C(C)=C/CC[C@@]1(C)O[C@@H]21 [Parthenolide, (1aR,7aS,10aS,10bS)-1a,5-dimethyl-8-methylene-2,3,6,7,7a,8,10a,10b-octahydrooxireno[9,10]cyclodeca [1,2-b]furan-9(1aH)-one]
inhibition at 10 µM (SSAT translation [1]): 99.2%

N=C(N)c1ccc(OCCCCCOc2ccc(C(=N)N)cc2)cc1 [Pentamidine isethionate]
activation at 10 µM (SSAT translation [1]): 36%

Nc1ccc(/N=N/c2ccccc2)c(N)n1 [Phenazopyridine hydrochloride]
activation at 10 µM (SSAT translation [1]): 41%

CCc1ccc(CCOc2ccc(CC3SC(=O)NC3=O)cc2)nc1 (stereo not drawn) [Pioglitazone]
activation at 10 µM (SSAT translation [1]): 50%

C[C@@H]1O[C@@H](O[C@@H]2C=C3CC[C@@H]4[C@H](CC[C@]5(C)[C@@H](c6ccc(=O)oc6)CC[C@]45O)[C@@]3(C)CC2)[C@H](O)[C@H](O)[C@H]1O [Proscillaridin A, (3β)-3-[(6-deoxy-α-L-mannopyranosyl)oxy]-14-hydroxybufa-4,20,22-trienolide]
inhibition at 10 µM (SSAT translation [1]): 94%

Cc1cc(/C=C/c2ccc3cc(N(C)C)ccc3[n+]2C)c(C)n1-c1ccccc1 [Pyrvinium pamoate, 2-[(E)-2-(2,5-dimethyl-1-phenylpyrrol-3-yl)ethenyl]-N,N,1-trimethylquinolin-1-ium-6-amine]
inhibition at 10 µM (SSAT translation [1]): 92.5%

O=C1NCCN1CCN1CCC(c2cn(-c3ccc(F)cc3)c3ccc(Cl)cc23)CC1 [Sertindole, 1-[2-[4-[5-chloro-1-(4-fluorophenyl)-indol-3-yl]-1-piperidyl]ethyl]-imidazolidin-2-one]
inhibition at 10 µM (SSAT translation [1]): 99.8%

CCCCNc1ccc(C(=O)OCCN(C)C)cc1.Cl [Tetracaïne hydrochloride]
% Increase in SSAT Translation (SSAT translation [1]): 40%

NCCNCCNCCNCCN [Tetraethylenepentamine pentahydrochloride]
activation at 10 µM (SSAT translation [1]): 60%

CCCCCCCCCCCCCCCC[N+](C)(C)CCN(Cc1ccc(OC)cc1)c1ncccn1 [Thonzonium bromide, N-{2-[(4-Methoxybenzyl)(pyrimidin-2-yl)amino]ethyl}-N,N-dimethylhexadecan-1-aminium bromide]
inhibition at 10 µM (SSAT translation [1]): 99%

c1ccc2[nH]c(-c3cscn3)nc2c1 [Tiabendazole]
activation at 10 µM (SSAT translation [1]): 39%

CN(C)CCOc1ccc(/C(=C(/CCCl)c2ccccc2)c2ccccc2)cc1 [Toremifene, 2-{4-[(1Z)-4-chloro-1,2-diphenyl-but-1-en-1-yl]phenoxy}-N,N-dimethylethanamine]
inhibition at 10 µM (SSAT translation [1]): 86.3%

Fc1ccc(C(OCCN2CCN(CCCc3ccccc3)CC2)c2ccc(F)cc2)cc1 [Vanoxerine dihydrochloride, 1-[2-[bis(4-fluorophenyl)methoxy]ethyl]-4-(3-phenylpropyl)piperazine•(HCl)2]
inhibition at 10 µM (SSAT translation [1]): 96.9%

N.N.[Cl][Pt][Cl] [cisplatin, Cisplatin]
Release of translational repression of the chimeric construct (luciferase activity) (SSAT translation [2]): about the same as in the absence of a small molecule
